Details: 323.15 K, Liquid, Vibrating tube method

CCCC(=O)OCC(COC(=O)CCC)(COC(=O)CCC)COC(=O)CCC [pentaerythritol tetrabutyrate]
Details	mass density [kg/m3]
11242 kPa	1032.9
11279 kPa	1033
11316 kPa	1033
11352 kPa	1033
11384 kPa	1033.1
11409 kPa	1033
11434 kPa	1033.1
11464 kPa	1033
11489 kPa	1033.1
11520 kPa	1033.2
11545 kPa	1033.1
11573 kPa	1033.1
11598 kPa	1033.2
11625 kPa	1033.2
11655 kPa	1033.2
11681 kPa	1033.3
11713 kPa	1033.3
11740 kPa	1033.2
11766 kPa	1033.3
11793 kPa	1033.3
11825 kPa	1033.4
11853 kPa	1033.3
11880 kPa	1033.5
11914 kPa	1033.4
11944 kPa	1033.4
11971 kPa	1033.4
11999 kPa	1033.4
12033 kPa	1033.4
12061 kPa	1033.5
12089 kPa	1033.5
12122 kPa	1033.6
12151 kPa	1033.6
12180 kPa	1033.6
12214 kPa	1033.5
12243 kPa	1033.7
12272 kPa	1033.6
12367 kPa	1033.8
12397 kPa	1033.7
12432 kPa	1033.7
12462 kPa	1033.8
12499 kPa	1033.8
12530 kPa	1033.9
12555 kPa	1033.8
12591 kPa	1033.9
12623 kPa	1033.9
12660 kPa	1033.9
12691 kPa	1033.9
12724 kPa	1033.9
12762 kPa	1033.9
12794 kPa	1034.1
12826 kPa	1033.9
12858 kPa	1034
12897 kPa	1034.1
12930 kPa	1034.1
12969 kPa	1034.1
13003 kPa	1034.2
13037 kPa	1034.3
13072 kPa	1034.3
13115 kPa	1034.3
13152 kPa	1034.3
13184 kPa	1034.2
13211 kPa	1034.3
13233 kPa	1034.3
13255 kPa	1034.4
13281 kPa	1034.4
13303 kPa	1034.4
13326 kPa	1034.4
13352 kPa	1034.3
13375 kPa	1034.4
13398 kPa	1034.5
13420 kPa	1034.5
13447 kPa	1034.5
13470 kPa	1034.5
13493 kPa	1034.5
13520 kPa	1034.5
13543 kPa	1034.6
13570 kPa	1034.5
13593 kPa	1034.6
13616 kPa	1034.6
13639 kPa	1034.7
13667 kPa	1034.5
13690 kPa	1034.6
13718 kPa	1034.6
13742 kPa	1034.6
13766 kPa	1034.7
13794 kPa	1034.6
13819 kPa	1034.6
13843 kPa	1034.7
13867 kPa	1034.7
13896 kPa	1034.8
13920 kPa	1034.7
13945 kPa	1034.8
13974 kPa	1034.9
13998 kPa	1034.8
14027 kPa	1034.8
14052 kPa	1034.9
14215 kPa	1035
14240 kPa	1034.9
14265 kPa	1034.9
14296 kPa	1035.1
14322 kPa	1035
14348 kPa	1035.1
14379 kPa	1035
14405 kPa	1035
14431 kPa	1035
14462 kPa	1035.1
14490 kPa	1035
14518 kPa	1035.2
14544 kPa	1035.1
14571 kPa	1035.2
14603 kPa	1035.1
14630 kPa	1035.2
14658 kPa	1035.3
14690 kPa	1035.3
14717 kPa	1035.3
14749 kPa	1035.4
14805 kPa	1035.4
14833 kPa	1035.3
14867 kPa	1035.3
14895 kPa	1035.4
14923 kPa	1035.5
14957 kPa	1035.4
14986 kPa	1035.4
15014 kPa	1035.5
15048 kPa	1035.6
15077 kPa	1035.6
15105 kPa	1035.6
15140 kPa	1035.6
15169 kPa	1035.7
15199 kPa	1035.6
15229 kPa	1035.5
15265 kPa	1035.6
15294 kPa	1035.6
15325 kPa	1035.7
15360 kPa	1035.7
15390 kPa	1035.7
15421 kPa	1035.8
15456 kPa	1035.8
15487 kPa	1035.8
15517 kPa	1035.8
15554 kPa	1035.8
15585 kPa	1035.9
15616 kPa	1035.9
15653 kPa	1036
15685 kPa	1035.9
15716 kPa	1036
15748 kPa	1036

Reference: the NIST ThermoML archive (doi:10.1021/je060271a)
